# Test system: Plasmodium falciparum
# Assay: GSK_TCMDC: Inhibition of Plasmodium falciparum 3D7 in whole erythrocytes, using parasite LDH activity as an index of growth.
# Type: functional, organism-based
# Conditions: Plasmodium falciparum, 3D7
row,Structure (SMILES),XC50 [nM]
1,c1ccc2c(c1)cc(CNCCCN1CCN(CCCNCc3cc4ccccc4c4ccccc34)CC1)c1ccccc12,204
2,COc1c(C)cc(I)cc1CNCCCNc1cc(=O)c2ccccc2[nH]1,1280
3,CN1CCN(c2ccc(Nc3ncc(C#N)c(Nc4ccccc4C(N)=O)n3)cc2)CC1,39.4
4,COc1cccc(Nc2c(C(N)=O)cnc3ccc(-c4ccc([S+](C)[O-])cc4)cc23)c1 (centres undefined),186
5,c1cc(CN2CCC(CCN3CCCCC3)CC2)cc(-c2cccc(-c3nc4ccccc4[nH]3)c2)c1,140
6,COc1ccc(C(=O)O)cc1OCc1ccccc1,819
7,c1ccc(CCNCc2cccc(-c3ccccc3CNCc3ccc4c(c3)OCO4)c2)nc1,968
8,CC(C)(C)OC(=O)NCc1ccc(Nc2nnc(-c3ccc(OCC(=O)NCc4cc(C(F)(F)F)cc(C(F)(F)F)c4)c([N+](=O)[O-])c3)o2)cc1,460
9,COc1cc(NC(=O)C(c2ccc(Cl)cc2)C(C)C)cc(OC)c1OC (centres undefined),534
10,COc1ccc2nccc([C@@H](O)CN3CCC(NC(=O)c4cc5c(F)cc(F)cc5[nH]4)CC3)c2n1,1390
11,COc1ccc2c(NN=Cc3cccc(C)n3)ccnc2c1,761
12,COc1ccc2nccc([C@@H](O)CN3CCC(NC(=O)C(c4cccs4)N4CCN(c5ccc(F)cc5)CC4)CC3)c2c1 (some centres undefined),817
13,CC(C)Cn1c2ccccc2c2nc3nc(N)nc(N)c3nc21,725
14,CCOC(=O)c1ccc(NC(=O)N[C@@H](Cc2ccccc2)C(=O)NC2CCN(Cc3ccc(OCCCN(C)C)cc3)C2)cc1 (some centres undefined),702
15,Cn1cnc(CCNC(=O)c2ccc(-c3ccc(-c4nc5cc(C(F)(F)F)ccc5[nH]4)s3)cc2)c1,402
16,CC(C)CNCc1ccc(-c2ccc(CN(CCCN3CCN(C)CC3)C(=O)/C=C/c3ccccc3)cc2)cc1,917
17,CCc1cn2c3c(cc(C(=O)N[C@@H](Cc4cccc(Cl)c4)[C@H](O)CNC4CCOCC4)cc13)N(C)S(=O)(=O)CC2,44.2
18,O=C(NCC1CCN(Cc2cccc(C(F)(F)F)c2)C1)c1cc(-c2cccc(F)c2)cs1 (centres undefined),1180
19,Cc1[nH]c(C)c([N+](=O)[O-])c(=O)c1-c1ccc(Oc2ccccc2)cc1,266
20,CN(C)CCNC(=O)c1ccc2c(c1)n(C1CCN(S(=O)(=O)c3ccc(-c4ccccc4)cc3)CC1)c(=O)n2CC1CCCCC1,624
21,FC(F)(F)c1ccc2[nH]c(-c3ccc(-c4ccc(CN5CCN(c6cnccn6)CC5)cc4)cc3)nc2c1,687
22,Clc1ccc2c(NCCc3ccccn3)ccnc2c1,832
23,Cc1ccc2c(=NN=Cc3cccc(F)c3)cc(C)[nH]c2c1,857
24,Cc1ccc2cc(NC(=O)c3cccc(C(=O)Nc4ccc5nc(C)ccc5c4)n3)ccc2n1,1170

row,Structure (SMILES),XC50 [nM]
1,O=C(Nc1cccc(-c2cccc(CN3CCCC3)c2)c1)c1ccc(Cl)cc1,684
2,Cn1c(N)cc(-c2cccc(I)c2)c2c(=O)nc(N)nc1-2,269
3,O=C(NCCN1CCC(NC(=O)c2ccc(-c3ccccn3)s2)CC1)c1ccc(Cl)c(Cl)c1,881
4,COc1ccc2c(=NN=C(C)c3ccccn3)cc(C)[nH]c2c1,722
5,CC(C)Cn1cc2c(ccc3nc(N)nc(N)c32)n1,303
6,COc1ccc(Nc2ncc(OC)c(Nc3ccccc3C(N)=O)n2)cc1N1CCN(C)CC1,740
7,CC(=O)Nc1ccc(S(=O)(=O)N(Cc2cccc(Oc3ccccc3)c2)C2CCN(C/C=C(\C)CCC=C(C)C)CC2)cc1,192
8,COc1cc2nc(Nc3ccc4c(cnn4Cc4ccccc4)c3)nc(Nc3ccc4c(cnn4Cc4ccccc4)c3)c2cc1OC,194
9,Cc1ccc(-c2cnc(N)c3cc(-c4ccnc(N)n4)ccc23)cc1,808
10,CC(C)Nc1nc(NCCc2c[nH]cn2)nc(NCc2cccc3ccccc23)n1,1010
11,CS(=O)(=O)c1ccc(CNCc2ccc(-c3ccc(-c4nc5cc(F)ccc5[nH]4)s3)cc2)cc1,268
12,O=C(C=Cc1ccc(Cl)c(Cl)c1)NCCCCCN1CCC(CCNS(=O)(=O)c2ccc(Br)cc2)CC1,1120
13,NC1CCN(CCc2ccc(NS(=O)(=O)c3cccc4ccccc34)cc2)CC1,1700
14,Cc1cc(-c2ccc(NC(=O)N3CCc4cc(Br)c(N5CCN(C)CC5)cc43)cc2)ccc1C#N,883
15,O=C(Nc1cccc(C(F)(F)F)c1)c1cc([N+](=O)[O-])cc2cn[nH]c12,995
16,O=C(Nc1cccc(CN2CCCN(Cc3ccsc3)CC2)c1)c1ccc(-c2ccccc2)cc1,1340
17,CC(C)(CNC(=O)[C@@H]1CCCN(CCOc2ccc(Cl)cc2)C1)c1nc(-c2ccc(Cl)c(O)c2)c(-c2ccncc2)[nH]1,881
18,CCN(CC)CCN(Cc1ccc(-c2ccc(C(F)(F)F)cc2)cc1)C(=O)Cn1c(CCc2cccc(F)c2F)nc(=O)c2sccc21,905
19,COc1ccc(CNC2Cc3ccccc3C2)cc1-c1ccc(S(=O)(=O)NCc2ccccc2)s1,832
20,Cc1c(C)c2c(c(C)c1O)CC[C@@](C)(C(=O)N1CCC(CN3CCC(c4c[nH]c5ccccc45)CC3)CC1)O2,657
21,Cc1cccc2nc(-c3ccc(-c4cccc(NC(=O)NCc5ccccc5)c4)cc3)[nH]c12,777
22,COc1ccc(-c2ccc(NC(=O)c3ccc(F)cc3)cc2)cc1CNC(C)C,758
23,CCOC(=O)c1c(C)n(-c2ccccc2)c2ccc(OC(=O)c3ccc(S(=O)(=O)N(CC)CC)cc3)cc12,748
24,N#Cc1ccc(CN2CCCN(c3ccc(NC(=O)c4ccc(F)cc4)cc3)CC2)cc1,1280

row,Structure (SMILES),XC50 [nM]
1,NC1CCN(CCNCc2cccc(-c3ccc(-c4nc5cc(F)ccc5[nH]4)cc3)c2)C1 (centres undefined),734
2,CCCCCCN1CCC(NCc2cccc(C#N)c2)CC1,778
3,Cc1[nH]c(C)c(-c2ccc(CCc3ccc(F)cc3F)cc2)c(=O)c1Cl,15.9
4,CCN(CC)CCN(Cc1ccc(-c2ccc(C(F)(F)F)cc2)cc1)C(=O)Cn1c(CCc2cccc(F)c2F)nc(=O)c2cc(F)ccc21,826
5,C[C@H](NC(=O)c1c(CN2CCC(N3CCCCC3=O)CC2)c(-c2cccs2)nc2ccccc12)C1CCCCC1,898
6,CCc1ccc(CN2CCC(CNC(=O)c3cc(-c4cccc(Cl)c4)cs3)C2)cc1 (centres undefined),1110
7,Cc1cc(C)cc(NC(=S)NCCCCN2CCN(c3cccc(Cl)c3)CC2)c1,1350
8,CN(C(=O)/C=C/c1ccccc1F)C1CCN(CCCCCNC(=O)/C=C/c2ccc(Cl)c(Cl)c2)CC1,509
9,CCN1CCN(c2ccc(NC(=O)c3cc4c(C)nn(-c5ccccc5)c4s3)cc2C)CC1,757
10,Cc1cccc(-c2c(C)nc(N)nc2N)c1,1150
11,COc1ccc(CC2(c3ccc(F)cc3)N=C(N)N(CCCc3ccc4c(c3)OCO4)C2=O)cc1 (centres undefined),739
12,CC(C)N1CCN(C(CN2CCN(CCCOc3ccc4ccccc4c3)CC2)c2ccc(F)cc2)CC1 (centres undefined),581
13,CCCCCCNC(=O)C(N)CCCC(N)C(=O)NCCCCCC (centres undefined),162
14,COc1c(CNCCCCCCNCc2cc(Cl)c3ccccc3c2OC)cc(Cl)c2ccccc12,937
15,COc1ccc(-c2ccc(NC(=O)c3cccs3)cc2)cc1CN1CCCN(C)CC1,964
16,COc1cccc(CNC(=O)c2cc(CNCc3ccccc3)ccc2-c2cccc(CNCc3ccc(-c4ccccc4)cc3)c2)c1,847
17,CCc1ccc(NC(=O)N(CCCn2ccnc2)Cc2csc(-c3ccc(CNCc4ccccc4)cc3)n2)cc1,757
18,O=C(NCCN1CCCC1)N1CCCN(c2ncnc3cc(-c4ccc(Cl)cc4)sc23)CC1,918
19,CC(C)C(C)(C#N)NC(=O)CSc1nc2ccc([N+](=O)[O-])cc2s1 (centres undefined),1030
20,c1cc(CNCCc2ccncc2)cc(-c2cccc(-c3nc4ccccc4[nH]3)c2)c1,146
21,Cc1[nH]c(C)c(-c2ccc(OCc3cccc(C(F)(F)F)c3)nc2)c(=O)c1Br,40.3
22,COc1ccc(NC(=O)c2ccc(C=Cc3ccc(C(F)(F)F)cc3)cc2)cc1N1CCN(C)CC1,421
23,CNc1ccc(CNCc2ccc(-c3ccc(-c4nc5cc(C(F)(F)F)ccc5[nH]4)cc3)cc2)cc1,167
24,CCc1ccc(CN2CCC(CNC(=O)c3cc(-c4ccccc4F)cs3)C2)cc1 (centres undefined),899

row,Structure (SMILES),XC50 [nM]
1,Cc1cc(F)ccc1N(c1nc(-c2cc(Cl)ccc2Cl)cs1)C1CCNC1 (centres undefined),1010
2,Cc1[nH]c(C)c(-c2ccc(OCc3ccc(OC(F)(F)F)cc3)nc2)c(=O)c1Cl,70.5
3,O=C(Nc1cccc(CN2CCCN(CC3CC3)CC2)c1)c1ccc(-c2ccccc2)cc1,930
4,Cc1cccc2nc(C3CCN(CC4CCN(C(=O)/C=C/c5ccc(Cl)c(Cl)c5)CC4)CC3)[nH]c12,485
5,COc1cc2c(cc1O)[C@@H]1[C@H](O)[C@@H](O)C=C3CCN(C2)[C@H]31 [PSEUDOLYCORINE],991
6,COc1ccc(N2C(=O)c3c(c4ccccc4n3C)C2c2ccccc2O)cc1 (centres undefined),117
7,Cc1cccc(-c2nc(Nc3ccncc3)c3ccc([N+](=O)[O-])cc3n2)n1,831
8,O=C(/C=C/c1ccc(Cl)c(Cl)c1)N1CCC(CN2CCC(c3c(-c4ccc(F)cc4)[nH]c4ccccc34)CC2)CC1,175
9,COc1ccc(-c2ccc(NC(=O)c3cccc(F)c3)cc2)cc1CN1CCCN(C)CC1,672
10,CCOc1cc(C(=O)NC2CC(C)(C)NC(C)(C)C2)ccc1-c1cc2cc(Cl)c(Cl)cc2[nH]1,770
11,Cc1cc(N[C@@H](CC(C)C)C(=O)NCCc2ccccc2)nc(NCCc2ccc(F)cc2)n1,771
12,Cc1cccc2nc(-c3ccc(-c4ccc(NC(=O)C(C)CN5CCN(C)CC5)cc4)s3)[nH]c12 (centres undefined),731
13,COc1ccc(OC)c(NC(=O)CSc2nc(-c3ccccc3Cl)ns2)c1,835
14,COc1cccc(CN2CCCC(OC(c3ccc(F)cc3)c3ccc(F)cc3)C2)c1O (centres undefined),788
15,Cc1cc(N[C@@H](Cc2ccccc2)C(=O)NCc2cccc(F)c2)nc(NCCc2ccccc2)n1,1020
16,COc1cc2ncnc(Nc3ccc(OCc4ccccc4)c(OCc4ccccc4)c3)c2cc1OC,738
17,CCCC(=O)c1cnc2c(OCCCc3c[nH]cn3)cccc2c1Nc1c(C)cccc1C,338
18,C=CCn1c(=N)n(CC(O)c2ccc(Cl)c(Cl)c2)c2ccccc21 (centres undefined),338
19,Cc1ccc(C(O)CNc2ccnc(Nc3cccc(-c4csc(C)n4)c3)n2)cc1 (centres undefined),826
20,COc1ccc2c(=NN=Cc3ccccc3)cc(C)[nH]c2c1,846
21,C[C@H](NC(=O)[C@H](Cc1ccccc1)NC(=O)OC(C)(C)C)C(=O)N[C@@H](CC1CCCCC1)C(O)CN (some centres undefined),733
22,CC(=O)Nc1ccc(C2NC(=O)NC(c3ccccc3)=C2c2nc3ccccc3s2)cc1 (centres undefined),1110

# From ChEMBL document CHEMBL1157539, “Thousands of chemical starting points for antimalarial lead identification” (Nature, 2010)
